Test results taken from PMC9124820, “In vitro evaluation of fenfluramine and norfenfluramine as victims of drug interactions” (Pharmacology Research & Perspectives, 2022).

Experiments:
[1] = Metabolic stability and metabolite identity, rat liver S9 fractions; type: in vitro ADME; details: pH 7.4; 1 µM FFA, rat liver S9 fractions 2 mg protein/mL
Method: LC‐MS/MS analyses to assess metabolic stability and identify the transporter substrate were performed using an API 4000 QTRAP mass spectrometer (SCIEX, Framingham, MA) with electrospray ionization in positive mode. Chromatography was performed using an Atlantis dC18 analytical column (100 × 2.1 mm, 5 µm; Waters Corporation, Milford, MA). Mobile phases were 0.2% v/v formic acid in water and 0.2% v/v formic acid in acetonitrile. For metabolic stability experiments, FFA and metabolites were eluted at a flow rate of 0.6 mL/min, with a linear gradient of 20%−80% acetonitrile from 0.30−2.0 min. […] The mass transitions monitored were 232.0 > 159.0 for FFA and 348.0 > 330.0 for 1ʹ‐OH‐midazolam‐d4 internal standard. […]
FFA (1 or 10 µM) was incubated with liver and intestinal S9 fractions (2 mg protein/mL) at 37 ± 1°C in 0.2‐mL incubation mixtures containing potassium phosphate buffer (50 mM, pH 7.4), magnesium chloride (MgCl2) (3 mM), and EDTA (1 mM, pH 7.4), in the presence or absence of a three‐component cofactor mixture (NADPH‐generating system, uridine diphosphate glucuronic acid (UDPGA) [8 mM], and 3’‐phosphoadenosine 5’‐phosphosulfate [0.5 mM]). […] Supernatant fractions were analyzed by LC‐MS/MS.
To characterize substrate loss and metabolic stability, duplicate samples were analyzed by LC‐MS/MS to determine the change in substrate concentration over the incubation period. […]

[2] = Metabolic stability and metabolite identity, human liver S9 fractions; type: in vitro ADME
Method: LC‐MS/MS analyses to assess metabolic stability and identify the transporter substrate were performed using an API 4000 QTRAP mass spectrometer (SCIEX, Framingham, MA) with electrospray ionization in positive mode. Chromatography was performed using an Atlantis dC18 analytical column (100 × 2.1 mm, 5 µm; Waters Corporation, Milford, MA). Mobile phases were 0.2% v/v formic acid in water and 0.2% v/v formic acid in acetonitrile. For metabolic stability experiments, FFA and metabolites were eluted at a flow rate of 0.6 mL/min, with a linear gradient of 20%−80% acetonitrile from 0.30−2.0 min. For transporter substrate experiments, the gradient was slightly modified to achieve suitable chromatography. The mass transitions monitored were 232.0 > 159.0 for FFA and 348.0 > 330.0 for 1ʹ‐OH‐midazolam‐d4 internal standard.
For metabolic characterization experiments, LC‐MS/MS analyses were performed using an Acquity Ultra Performance Liquid Chromatography system with an in‐line photodiode array detector and ethylene bridged hybrid C18 columns (2.1 × 100 mm, 1.7 µm; Waters Corporation) coupled to a Synapt G2 HDMS QTOF (Waters Corporation). Mobile phases were 0.1% v/v formic acid in water and 0.1% v/v formic acid in methanol. FFA and metabolites were eluted at a flow rate of 0.5 mL/min with a linear gradient of 2.0%−35% methanol from 1.0−10.0 min. The mass spectrometer was operated in positive mode with electrospray ionization. Data were acquired over the range 50−1200 m/z (mass‐to‐charge ratio) using capillary voltage, 3.5 kV; extraction cone voltage, 4.0 V; source temperature, 120°C; and desolvation temperature, 350°C. A continuous lock mass reference compound, fexofenadine, was sampled at 10‐s intervals for centroid data mass correction. Data were processed with MetaboLynx XS, a component of MassLynx (v. 4.1) software (Waters Corporation).
FFA (1 or 10 µM) was incubated with liver and intestinal S9 fractions (2 mg protein/mL) at 37 ± 1°C in 0.2‐mL incubation mixtures containing potassium phosphate buffer (50 mM, pH 7.4), magnesium chloride (MgCl2) (3 mM), and EDTA (1 mM, pH 7.4), in the presence or absence of a three‐component cofactor mixture (NADPH‐generating system, uridine diphosphate glucuronic acid (UDPGA) [8 mM], and 3’‐phosphoadenosine 5’‐phosphosulfate [0.5 mM]). The NADPH‐generating system consisted of NADP (1 mM, pH 7.4), glucose‐6‐phosphate (5 mM, pH 7.4), and glucose‐6‐phosphate dehydrogenase (1 U/mL). Reactions were initiated by adding the cofactor mix and were stopped at 0, 30, 60, or 120 min by adding an equal volume of acetonitrile. Cofactor controls were incubations performed in parallel in the absence of cofactor for 120 min. Additional incubations were performed with midazolam (10 μM) as a positive control to establish the metabolic competence of test systems. Samples were centrifuged at 920 × g for 10 min at 10°C. Supernatant fractions were analyzed by LC‐MS/MS.
To characterize substrate loss and metabolic stability, duplicate samples were analyzed by LC‐MS/MS to determine the change in substrate concentration over the incubation period. The rate constant of elimination (kel, min^−1) was determined from the time course of substrate loss based on single exponential decay (A(t)=A0(‐kelt)) . Half‐life in vitro was determined by the following equation: t1/2 = 0.693/kel. The in vitro intrinsic clearance (CLint) was calculated from the rate constant of elimination as follows: CLintμL/min/mgprotein=kelmin^‐1×incubationvolume(μL)/mgproteinperincubation.
Percent loss of substrate was determined by normalizing the mean analyte peak‐area ratio at each time point to the average of four replicates at the 0‐min time point (100%).

[3] = pH 7.4, 1 µM FFA, human liver S9 fractions 2 mg protein/mL, outside assay detection limits

## CCNC(C)Cc1cccc(C(F)(F)F)c1 (racemic) [FFA, (RS)‐ethyl (α‐methyl‐3‐trifluoromethylphenethyl)amine]
[1]
  half-life at 1 µM: 35.4 min
  microsomal CLint at 1 µM: 9.8 µL/min/mg
[2]; human liver S9, 1 μM FFA with cofactors, 30 min
  percent of the drug remaining: 1.9%
[2]; human liver S9, 1 μM FFA with cofactors, 60 min
  percent of the drug remaining: 11.1%
[2]; human liver S9, 1 μM FFA with cofactors, 120 min
  percent of the drug remaining: 20.9%
[2]; human liver S9, 1 μM FFA, absence of the cofactors
  percent of the drug remaining: 21.6%
[2]; human liver S9, 10 μM FFA, absence of the cofactors
  percent of the drug remaining: 22.9%
[2]; [3]
  half-life at 1 µM: > 120 min
  microsomal CLint at 1 µM: < 2.9 µL/min/mg
CYP inhibition by stiripentol/clobazam plus renal clearance
  clearance accounted for in vivo: approximately 80%
human, in vivo, 0.1 mg/kg twice daily
  maximum possible amount remaining for metabolism by MAO: ≤ 20%
